PubChem BioAssay (NCI)
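Method: 48-hour compound exposure of cells in 96-well plates, five concentrations, linear interpolation of endpoints. At the TGI there is no net growth.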

Key:
Experiment in all cases: DTP human tumour cell line panel, 48 h
[1] = system: 786-0 renal
[2] = system: A498 renal
[3] = system: A549 NSCLC
[4] = system: ACHN renal
[5] = system: BT-549 breast
[6] = system: CAKI-1 renal
[7] = system: COLO 205 colon
[8] = system: DLD-1 colon
[9] = system: DMS 114 small cell lung
[10] = system: DMS 273 small cell lung
[11] = system: DU-145 prostate
[12] = system: EKVX NSCLC
[13] = system: HCC-2998 colon
[14] = system: HCT-116 colon
[15] = system: HCT-15 colon
[16] = system: HL-60(TB) leukemia
[17] = system: HOP-18 NSCLC
[18] = system: HOP-62 NSCLC
[19] = system: HOP-92 NSCLC
[20] = system: HS 578T breast
[21] = system: HT29 colon
[22] = system: IGROV1 ovarian
[23] = system: K-562 leukemia
[24] = system: KM12 colon
[25] = system: KM20L2 colon
[26] = system: LOX IMVI melanoma
[27] = system: LXFL 529 NSCLC
[28] = system: M14 melanoma
[29] = system: M19-MEL melanoma
[30] = system: MALME-3M melanoma
[31] = system: MCF7 breast
[32] = system: MDA-MB-231 breast
[33] = system: MDA-MB-435
[34] = system: MDA-N
[35] = system: MOLT-4 leukemia
[36] = system: NCI-H226 lung
[37] = system: NCI-H23 lung
[38] = system: NCI-H460 lung
[39] = system: NCI-H522 lung
[40] = system: OVCAR-3 ovarian
[41] = system: OVCAR-4 ovarian
[42] = system: OVCAR-5 ovarian
[43] = system: OVCAR-8 ovarian
[44] = system: PC-3 prostate
[45] = system: RPMI-8226 leukemia
[46] = system: RXF 393 renal
[47] = system: RXF-631 renal
[48] = system: SF-268 CNS
[49] = system: SF-295 CNS
[50] = system: SF-539 CNS
[51] = system: SK-MEL-2 melanoma
[52] = system: SK-MEL-28 melanoma
[53] = system: SK-MEL-5 melanoma
[54] = system: SK-OV-3 ovarian
[55] = system: SN12C renal
[56] = system: SNB-19 CNS
[57] = system: SNB-75 CNS
[58] = system: SNB-78 CNS
[59] = system: SR leukemia
[60] = system: SW-620 colon
[61] = system: T-47D breast
[62] = system: TK-10 renal
[63] = system: U251 CNS
[64] = system: UACC-257 melanoma
[65] = system: UACC-62 melanoma
[66] = system: UO-31 renal
[67] = system: CCRF-CEM leukemia

O=C1C=CC(=O)c2ccc(=O)ccc21
TGI [1]: 32.8 µM
TGI [2]: 41.6 µM
TGI [3]: 64.2 µM
TGI [4]: 23.5 µM
TGI [5]: 31.9 µM
TGI [6]: 21 µM
TGI [7]: 18.9 µM
TGI [8]: 15.6 µM
TGI [9]: 33.9 µM
TGI [10]: 58.1 µM
TGI [11]: 59.9 µM
TGI [12]: 50.7 µM
TGI [13]: 31.3 µM
TGI [14]: 31.6 µM
TGI [15]: 35.8 µM
TGI [16]: 15.8 µM
TGI [17]: 39.1 µM
TGI [18]: 51.5 µM
TGI [19]: 3.72 µM
TGI [20]: > 100 µM
TGI [21]: 50.5 µM
TGI [22]: 33.6 µM
TGI [23]: 14.6 µM
TGI [24]: 37.4 µM
TGI [25]: 46.2 µM
TGI [26]: > 54.1 µM
TGI [27]: 11.1 µM
TGI [28]: 31.1 µM
TGI [29]: 25.5 µM
TGI [30]: 39.6 µM
TGI [31]: > 100 µM
TGI [32]: 45.5 µM
TGI [33]: 46 µM
TGI [34]: 28.8 µM
TGI [35]: 5.69 µM
TGI [36]: 58.9 µM
TGI [37]: 45.5 µM
TGI [38]: 43.2 µM
TGI [39]: 5.82 µM
TGI [40]: 26.7 µM
TGI [41]: 27.8 µM
TGI [42]: 35 µM
TGI [43]: 64.5 µM
TGI [44]: 33 µM
TGI [45]: > 29.7 µM
TGI [46]: 16.3 µM
TGI [47]: 42.3 µM
TGI [48]: 32.9 µM
TGI [49]: 37.1 µM
TGI [50]: 43.5 µM
TGI [51]: 34.8 µM
TGI [52]: 42.6 µM
TGI [53]: 38.3 µM
TGI [54]: 48.8 µM
TGI [55]: 32.2 µM
TGI [56]: 27.1 µM
TGI [57]: 39 µM
TGI [58]: 64.5 µM
TGI [59]: 6.3 µM
TGI [60]: 14.4 µM
TGI [61]: 5.55 µM
TGI [62]: 33.9 µM
TGI [63]: 30.1 µM
TGI [64]: 30.4 µM
TGI [65]: 29.9 µM
TGI [66]: 22.1 µM

COc1ccc(NC(=O)C2C(=O)N(c3ccc(OC)cc3)C(=O)/C2=N\N)cc1 (stereo not given)
TGI [1]: > 100 µM
TGI [2]: > 100 µM
TGI [3]: > 100 µM
TGI [4]: > 100 µM
TGI [67]: > 100 µM
TGI [7]: > 100 µM
TGI [8]: > 100 µM
TGI [9]: > 100 µM
TGI [12]: > 100 µM
TGI [13]: > 100 µM
TGI [14]: > 100 µM
TGI [15]: > 100 µM
TGI [16]: > 100 µM
TGI [17]: > 100 µM
TGI [18]: > 100 µM
TGI [19]: > 100 µM
TGI [21]: > 100 µM
TGI [22]: > 100 µM
TGI [23]: > 100 µM
TGI [24]: > 100 µM
TGI [25]: > 100 µM
TGI [27]: > 100 µM
TGI [28]: > 100 µM
TGI [29]: > 100 µM
TGI [30]: > 100 µM
TGI [35]: > 100 µM
TGI [37]: > 100 µM
TGI [38]: > 100 µM
TGI [39]: > 100 µM
TGI [42]: > 100 µM
TGI [43]: > 100 µM
TGI [46]: > 100 µM
TGI [47]: > 100 µM
TGI [48]: > 100 µM
TGI [49]: > 100 µM
TGI [50]: > 100 µM
TGI [51]: > 100 µM
TGI [52]: > 100 µM
TGI [53]: > 100 µM
TGI [55]: > 100 µM
TGI [56]: > 100 µM
TGI [58]: > 100 µM
TGI [59]: > 100 µM
TGI [60]: > 100 µM
TGI [62]: > 100 µM
TGI [63]: > 100 µM
TGI [64]: > 100 µM
TGI [65]: > 100 µM
TGI [66]: > 100 µM
